The numbers were not newly measured in patent US20180256462A1, “ALCOHOL-BASED SKIN SANITIZER HAVING MICROBICIDAL PROPERTIES” (DEB IP LIMITED, priority 2015, published 2018), which cites them from elsewhere.

Where two headings read alike, the source gives them in different places.

The test system of data set [1] is Escherichia coli.
The subject of data set [2] is Lactobacillus fermentum. The conditions noted are these: live cells of Lactobacillus fermentum, flow cytometry.
For data set [3], the system named is Staphylococcus aureus. The conditions noted are these: low concentrations (0.5 to 2 mM), disk diffusion.
Data set [4] deals with Microsporum gypseum.
The test system of data set [5] is Microsporum gypseum. The conditions noted are these: 10% in Vaseline petroleum jelly, topical daily for 3 weeks; for skin lesion scoring: first week of application; for histopathologic examination of skin tissues (hyperkeratosis, inflammatory cell infiltration): versus positive control.

`CC(C)=CCCC(C)=CCCC(C)=CCO` [farnesol]: in data set [1], the “sensitization of Escherichia coli to polymyxin B” value was “sensitized Escherichia coli to polymyxin B”. In addition, in data set [2], the “intracellular accumulation of ethidium bromide” value (shortened to “intracellular accumulation”) is listed as “promoted the intracellular accumulation of the membrane-impermeant nucleic acid stain ethidium bromide”.
As for `CC(C)=CCC/C(C)=C/CC1CCCC1=O` (stereo not drawn) [apritone], the “susceptibility of Staphylococcus aureus to ciprofloxacin, clindamycin, erythromycin, gentamicin, tetracycline, and vancomycin” value (shortened to “susceptibility of Staphylococcus aureus”) in data set [3] is “enhanced the susceptibility of Staphylococcus aureus”. In data set [2], the “intracellular accumulation” value is “promoted the intracellular accumulation of the membrane-impermeant nucleic acid stain ethidium bromide”.
For `Clc1ccc(COC(Cn2ccnc2)c2ccc(Cl)cc2Cl)cc1` (stereo not drawn) [econazole], the MIC in data set [4] (positive control) was 4 to 16 µg/mL.
On to `CC(C)=CCC[C@](C)(O)C1CC=C(C)CC1` (stereo partly drawn) [bisabolol], for which, in data set [3], the “susceptibility of Staphylococcus aureus” value is “enhanced the susceptibility of Staphylococcus aureus”. Further, the “intracellular accumulation” value in data set [2] is recorded as “promoted the intracellular accumulation of the membrane-impermeant nucleic acid stain ethidium bromide”.
For the molecule `C=CCc1ccc(O)c(OC)c1` [eugenol], in data set [5], the hair culture test result is given as “did not”; the skin lesion scoring result is reported as “clinically effective at improving the lesion during the first week of application”; the “histopathologic examination of skin tissues (hyperkeratosis, inflammatory cell infiltration)” value was “lower degree of hyperkeratosis and inflammatory cell infiltration than the positive control”. In data set [4], the MIC is 0.01-0.03%.
For the molecule `C=CC(C)(O)CCC=C(C)CCC=C(C)C` (mixture of isomers) [nerolidol, 3,7,11-trimethyl-1,6,10-dodecatrien-3-ol], in data set [5], the hair culture test entry is on record as “improved the skin lesions infected by M. gypseum”; the skin lesion scoring entry is recorded as “clinically effective at improving the lesion during the first week of application”; the “histopathologic examination of skin tissues (hyperkeratosis, inflammatory cell infiltration)” value was “lower degree of hyperkeratosis and inflammatory cell infiltration than the positive control”. Besides, the “sensitization of Escherichia coli to polymyxin B” value in data set [1] is listed as “sensitized Escherichia coli to polymyxin B”. The “susceptibility of Staphylococcus aureus” value in data set [3] is “enhanced the susceptibility of Staphylococcus aureus”. Also, the “intracellular accumulation” value in data set [2] was “promoted the intracellular accumulation of the membrane-impermeant nucleic acid stain ethidium bromide”. In addition, the MIC in data set [4] is given as 0.5-2%.
